US20150274787A1, “METHOD FOR RECOMBINANT PRODUCTION OF LABYRINTHOPEPTINS AND FUNCTIONAL DERIVATIVES THEREOF” (priority 2011, published 2015)
*1 amine or outer side, *2 acyl side, *3 side chain or, on linkers, in order; H or OH if unused. Where a SMILES comes first, the peptide text is derived from it. Bridges are numbered along the chain shown (N, C = ends). Where no end group is shown, it is not given here. [ ]: non-standard residue; d: D form. The star is where a group is joined. X1 = NC1=N[C@@H]([C@H](N[*:1])C(=O)[*:2])C[C@H](O)N1; ΔAla(Z-3-ureido) = NC(=O)N/C=C(\N)C(=O)O; β3hOrn = NCCC[C@H](N)CC(=O)*; Dap = NC[C@H](N)C(=O)O

Legend:
A. namibiensis = experiment: Testing selection markers (antibiotic resistance) suitable for genetic manipulations of A. namibiensis; for Growth after 4 days: key: −: no growth; +: slight growth; ++: medium growth; +++: strong growth; for Growth after 7 days: key: −: no growth; +: slight growth; ++: medium growth; +++: strong growth; assay type: cell-based, Actinomadura namibiensis; conditions: for Growth after 4 days / Growth after 7 days: A. namibiensis
Experimental: An apramycin resistance gene was used as selectable marker for vectors used in this study because from all eight tested antibiotics A. namibiensis was […] to apramycin (50 μg/ml). Initially for establishing a way in which DNA can be introduced into A. namibiensis the typical cloning vectors for Streptomyces strains were used. Plasmid pUWLoriT which can replicate autonomously in Streptomyces and plasmid pSET152 which can integrate site-specifically at the bacteriophage ΦC31 attachment site (18) (7) were used. […] Although Actinomaduras and Streptomyces are related it is still possible that origin of replication (ori) for Streptomyces is not recognized by A. namibiensis (9). Description of similar difficulties can be found in the literature (17). This led to the use of vectors harboring replicons of Actinomadura strains: pSETermEΔHindIII_oriCLL4, pK18mobXylE_oripCLL4 and pCLL4_ori_apra. Also a non-replicating plasmid pK18mob2 with a fragment coding for the LabKC modifying enzyme was used for transformation of A. namibiensis.

human P2X4 receptor = molecular target: T1, human P2X4 receptor (Homo sapiens, UniProt Q99571); experiment: IC50 determination by patch clamp on hP2X4_HEK-FITR cell line (in vitro anti-pain assay); assay type: cell-based; conditions: recombinant human P2X4 in HEK cells, 10 μM ATP, holding potential −60 mV, 0.3 to 90 μM
T1 construct: expressed in transfected cells; host or cells: HEK cells (hP2X4_HEK-FITR), expression induced with doxycyclin
T1 sequence (Q99571 1-388): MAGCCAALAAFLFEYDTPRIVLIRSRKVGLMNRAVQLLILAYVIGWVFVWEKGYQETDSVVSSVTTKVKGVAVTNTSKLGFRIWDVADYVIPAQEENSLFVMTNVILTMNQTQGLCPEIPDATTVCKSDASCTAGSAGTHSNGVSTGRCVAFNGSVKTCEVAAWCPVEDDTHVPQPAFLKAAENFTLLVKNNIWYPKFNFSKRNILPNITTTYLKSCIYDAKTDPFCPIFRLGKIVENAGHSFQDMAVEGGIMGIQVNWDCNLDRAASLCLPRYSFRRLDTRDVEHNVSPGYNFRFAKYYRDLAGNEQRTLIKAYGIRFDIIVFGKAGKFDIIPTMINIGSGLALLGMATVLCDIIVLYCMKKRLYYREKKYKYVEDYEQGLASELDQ
Excerpt: Evaluation of anti-pain activity of labyrinthopeptin A2 and its structural analogs LabA2_L14A and LabA2 F15A in an in vitro assay (IC50 determination of LabA2, LabA2_L14A and LabA2_F15A on hP2X4_HEK-FITR-cell line) The use of labyrinthopeptin A2 and its derivatives, in particular LabA2_L14A and LabA2_F15A, as analgesics was investigated for neuropathic pain based on their inhibitory effects on P2X4 receptors (Nagata K et al., 2009).
Recombinant human P2X4 receptor was expressed in HEK cells (hP2X4_HEK-FITR). hP2X4 expression was induced with doxycyclin 1 μg/ml for 24 h to 48 h. The patch clamp experiment has been performed under standard conditions using an axopatch-200B amplifier and pClamp v10 acquisition software (Axon Instruments Inc, Foster City, Calif., USA). Cells were continuously superfused with an external solution consisting of (in mM) 130 CsCl, 4 NaCl, 1 MgCl2, 1 CaCl2, 10 EGTA (free Ca^2+=6.7 nM) and 10 HEPES (pH 7.4 with CsOH). This was replaced with a […] external solution consisting of (in mM) 145 NaCl, 4 KCl, 2 CaCl2, 1 MgCl2 and 10 HEPES (pH 7.4 with NaOH). 250 ms application of 10 μM ATP (Sigma) every 10 sec was performed. […] Currents were measured at a holding potential of −60 mV.
Results were calculated using Origin7.5 software (FIG. 27).

[1] = molecular target: T2, Recombinant human P2X4 receptor (human, UniProt Q99571 1-388); experiment: cell-based or functional assay
T2 sequence (looked up): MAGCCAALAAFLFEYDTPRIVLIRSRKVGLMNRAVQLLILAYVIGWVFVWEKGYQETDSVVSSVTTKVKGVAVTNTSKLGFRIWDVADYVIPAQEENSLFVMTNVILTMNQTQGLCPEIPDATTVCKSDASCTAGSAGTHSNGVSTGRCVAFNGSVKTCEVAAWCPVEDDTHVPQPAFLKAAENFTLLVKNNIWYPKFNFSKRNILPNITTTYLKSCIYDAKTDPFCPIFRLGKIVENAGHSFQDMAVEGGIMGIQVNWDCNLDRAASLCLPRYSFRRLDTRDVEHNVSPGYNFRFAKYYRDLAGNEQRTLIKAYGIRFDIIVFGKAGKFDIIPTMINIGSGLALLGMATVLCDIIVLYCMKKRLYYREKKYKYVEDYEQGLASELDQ

## C=C(NC(=O)C(=C)NC(=O)c1csc(C2=N[C@@H]3c4csc(n4)[C@H]4NC(=O)c5csc(n5)[C@H]([C@](C)(O)[C@@H](C)O)NC(=O)[C@H]5CSC(=N5)/C(=C/C)NC(=O)[C@H]([C@@H](C)O)NC(=O)c5csc(n5)[C@]3(CC2)NC(=O)[C@H](C)NC(=O)C(=C)NC(=O)[C@H](C)NC(=O)[C@H]([C@@H](C)CC)N[C@@H]2C=Cc3c([C@H](C)O)cc(nc3[C@H]2O)C(=O)O[C@@H]4C)n1)C(N)=O [Thiostrepton]
A. namibiensis; antibiotic conc. 25 μg/ml
  Growth after 4 days: −
  Growth after 7 days: +
A. namibiensis; concentration not given
  sensitivity of A. namibiensis to antibiotic: not sensitive

## C[C@@H]1O[C@@H]1P(=O)(O)O [Phosphomycin]
A. namibiensis; antibiotic conc. 400 μg/ml
  Growth after 4 days: +++
  Growth after 7 days: +++

## LabA2_F15A (SDWSLWECCSTGSLAACC)
Human P2X4 receptor
  IC50 (concentration of a substance that blocks 50% of channels): could not be determined

## CN[C@@H]1[C@H](O)[C@H](NC)[C@H]2O[C@@]3(O)C(=O)C[C@@H](C)O[C@H]3O[C@@H]2[C@H]1O [Spectinomycin]
A. namibiensis; antibiotic conc. 100 μg/ml
  Growth after 4 days: +++
  Growth after 7 days: +++

## Hydromycin
A. namibiensis; antibiotic conc. 50 μg/ml
  Growth after 4 days: ++
  Growth after 7 days: +++

## NC[C@H]1O[C@H](O[C@H]2[C@H](O)[C@@H](O[C@H]3O[C@H](CO)[C@@H](O)[C@H](N)[C@H]3O)[C@H](N)C[C@@H]2N)[C@H](O)[C@@H](O)[C@@H]1O [Kanamycin]
A. namibiensis; antibiotic conc. 50 μg/ml
  Growth after 4 days: +++
  Growth after 7 days: +++

## [H]/N=C(/N)N[C@H]1[C@H](O)[C@@H](O)[C@H](O[C@@H]2O[C@@H](C)[C@](O)(C=O)[C@H]2O[C@@H]2O[C@@H](CO)[C@H](O)[C@@H](O)[C@@H]2NC)[C@@H](N/C(N)=N\[H])[C@@H]1O [Streptomycin]
A. namibiensis; antibiotic conc. 30 μg/ml
  Growth after 4 days: +
  Growth after 7 days: ++

## NCCC[C@H](N)CC(=O)N[C@H]1CNC(=O)[C@H]([C@H]2C[C@H](O)NC(N)=N2)NC(=O)/C(=C/NC(N)=O)NC(=O)[C@H](CO)NC(=O)[C@H](CO)NC1=O [Viomycin] (β3hOrn-[Dap]SS[ΔAla(Z-3-ureido)][X1]; lactam 1-C)
A. namibiensis; antibiotic conc. 30 μg/ml
  Growth after 4 days: +
  Growth after 7 days: +

## CN[C@@H]1[C@@H](O[C@H]2O[C@H](CO)[C@@H](N)[C@H](O)[C@H]2O)OC2C[C@@H](N)[C@@H](O[C@H]3[C@H](O)[C@@H](O)[C@H](N)C[C@@H]3N)OC2[C@@H]1O (stereo partly shown) [Apramycin]
A. namibiensis; 50 μg/ml
  sensitivity of A. namibiensis to antibiotic: sensitive
A. namibiensis; antibiotic conc. 25 μg/ml
  Growth after 4 days: −
  Growth after 7 days: +
A. namibiensis; antibiotic conc. 50 μg/ml
  Growth after 4 days: −
  Growth after 7 days: −

B1: LabA2_L14A (peptide)
peptide: SDWSLWECCSTGSAFACC
modifications: thioether (positions not given here); not fully specified (residues 1, 4, 10, 13, bridges); also: labionin residues as in LabA2: methylene bridges between alpha-C atoms, places not given here
[1]
  IC50 of inhibition of ATP-evoked currents (patch clamp, hP2X4_HEK-FITR cells): 30 µM
